In BindingDB's records for doi:10.1515/dmdi.1990.8.1-2.85 (Duphar, 1990):

Columns and labels:
D(1A) dopamine receptor = D(1A) dopamine receptor (Rattus norvegicus, UniProt P18901)
[1] = biological target: Gastrin/cholecystokinin type B receptor (Rattus norvegicus, UniProt P30553)
[2] = biological target: Muscarinic acetylcholine receptor M2 (Rattus norvegicus, UniProt P10980)
[3] = biological target: Sigma non-opioid intracellular receptor 1 (Rattus norvegicus, UniProt Q9R0C9)
[4] = biological target: 5-hydroxytryptamine receptor 2C (Sus scrofa, UniProt G7ZKZ7)
[5] = biological target: Delta-type opioid receptor (Rattus norvegicus, UniProt P33533)
Mu-type opioid receptor = Mu-type opioid receptor (Rattus norvegicus, UniProt P33535)
[6] = biological target: 5-hydroxytryptamine receptor 1B (Rattus norvegicus, UniProt P28564)
[7] = biological target: Muscarinic acetylcholine receptor M3 (Rattus norvegicus, UniProt P08483)
[8] = biological target: Glycine amidinotransferase, mitochondrial (Rattus norvegicus, UniProt P50442)
[9] = biological target: Cysteinyl leukotriene receptor 1 (Cavia porcellus, UniProt Q2NNR5)
[10] = biological target: Voltage-dependent calcium channel gamma-1 subunit (Homo sapiens, UniProt Q06432)
[11] = biological target: Beta-1 adrenergic receptor (Rattus norvegicus, UniProt P18090)
[12] = biological target: Gamma-aminobutyric acid receptor subunit alpha-1 (Rattus norvegicus, UniProt P62813)
[13] = biological target: Calcium release-activated calcium channel protein 1 (Homo sapiens, UniProt Q96D31)
Protachykinin-1 = Protachykinin-1 (Rattus norvegicus, UniProt P06767)
[14] = biological target: Alpha-1A adrenergic receptor (Rattus norvegicus, UniProt P43140)
Histamine H1 receptor = Histamine H1 receptor (Rattus norvegicus, UniProt P31390)
[15] = biological target: 5-hydroxytryptamine 1D receptor (Bos taurus, UniProt Q8MI13)
D(2) dopamine receptor = D(2) dopamine receptor (Rattus norvegicus, UniProt P61169)
[16] = biological target: 5-hydroxytryptamine receptor 3A (Mus musculus, UniProt P23979)
[17] = biological target: Kappa-type opioid receptor (Rattus norvegicus, UniProt P34975)
[18] = biological target: Muscarinic acetylcholine receptor M1 (Rattus norvegicus, UniProt P08482)
[19] = biological target: 5-hydroxytryptamine receptor 2A (Rattus norvegicus, UniProt P14842)
[20] = biological target: Alpha-2C adrenergic receptor (Rattus norvegicus, UniProt P22086)
[21] = biological target: Glutamate receptor ionotropic, NMDA 1 (Rattus norvegicus, UniProt P35439)
[22] = biological target: Pro-thyrotropin-releasing hormone (Rattus norvegicus, UniProt P01150)

Chain of Histamine H1 receptor (P31390 whole entry): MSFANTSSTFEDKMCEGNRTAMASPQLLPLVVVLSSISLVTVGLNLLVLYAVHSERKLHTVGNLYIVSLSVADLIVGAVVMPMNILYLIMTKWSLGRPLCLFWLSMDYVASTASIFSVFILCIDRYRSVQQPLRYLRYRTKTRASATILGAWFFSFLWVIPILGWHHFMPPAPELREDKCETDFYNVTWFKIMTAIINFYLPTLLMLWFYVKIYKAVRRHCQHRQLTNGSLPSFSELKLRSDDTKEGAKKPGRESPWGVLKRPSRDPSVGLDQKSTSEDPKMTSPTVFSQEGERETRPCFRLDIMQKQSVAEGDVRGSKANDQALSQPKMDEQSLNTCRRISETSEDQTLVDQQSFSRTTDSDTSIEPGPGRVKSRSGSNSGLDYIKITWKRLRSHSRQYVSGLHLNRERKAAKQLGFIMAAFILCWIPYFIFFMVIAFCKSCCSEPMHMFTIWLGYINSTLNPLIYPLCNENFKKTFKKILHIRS
Chain of Muscarinic acetylcholine receptor M3 (P08483 whole entry): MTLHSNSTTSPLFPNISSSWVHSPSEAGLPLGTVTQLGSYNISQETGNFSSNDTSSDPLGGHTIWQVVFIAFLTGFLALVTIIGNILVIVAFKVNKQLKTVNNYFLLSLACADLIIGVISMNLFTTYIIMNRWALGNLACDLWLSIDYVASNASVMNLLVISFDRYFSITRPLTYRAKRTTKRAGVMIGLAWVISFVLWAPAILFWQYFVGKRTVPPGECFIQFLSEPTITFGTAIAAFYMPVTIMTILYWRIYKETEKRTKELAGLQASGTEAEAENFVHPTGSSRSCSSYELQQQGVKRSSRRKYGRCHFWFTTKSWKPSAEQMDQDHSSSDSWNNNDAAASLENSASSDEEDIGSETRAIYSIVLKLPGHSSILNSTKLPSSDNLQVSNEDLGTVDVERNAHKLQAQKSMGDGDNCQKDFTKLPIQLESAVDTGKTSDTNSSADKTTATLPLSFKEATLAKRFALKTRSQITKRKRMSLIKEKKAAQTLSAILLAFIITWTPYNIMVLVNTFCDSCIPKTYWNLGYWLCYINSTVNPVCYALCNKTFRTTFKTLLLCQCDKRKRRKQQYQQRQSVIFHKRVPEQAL
Chain of D(1A) dopamine receptor (P18901 whole entry): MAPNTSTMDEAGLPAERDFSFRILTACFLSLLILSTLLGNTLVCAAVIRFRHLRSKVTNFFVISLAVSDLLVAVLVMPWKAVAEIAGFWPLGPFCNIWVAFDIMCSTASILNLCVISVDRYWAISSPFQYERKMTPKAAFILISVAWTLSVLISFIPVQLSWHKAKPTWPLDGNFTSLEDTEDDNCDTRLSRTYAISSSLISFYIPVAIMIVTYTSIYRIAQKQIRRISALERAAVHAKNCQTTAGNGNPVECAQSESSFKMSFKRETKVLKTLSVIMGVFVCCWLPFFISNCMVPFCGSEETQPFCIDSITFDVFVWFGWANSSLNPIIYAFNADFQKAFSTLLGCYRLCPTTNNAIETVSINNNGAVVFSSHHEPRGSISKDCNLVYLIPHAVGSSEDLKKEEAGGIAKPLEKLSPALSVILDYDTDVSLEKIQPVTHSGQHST
Chain of Cysteinyl leukotriene receptor 1 (Q2NNR5 whole entry): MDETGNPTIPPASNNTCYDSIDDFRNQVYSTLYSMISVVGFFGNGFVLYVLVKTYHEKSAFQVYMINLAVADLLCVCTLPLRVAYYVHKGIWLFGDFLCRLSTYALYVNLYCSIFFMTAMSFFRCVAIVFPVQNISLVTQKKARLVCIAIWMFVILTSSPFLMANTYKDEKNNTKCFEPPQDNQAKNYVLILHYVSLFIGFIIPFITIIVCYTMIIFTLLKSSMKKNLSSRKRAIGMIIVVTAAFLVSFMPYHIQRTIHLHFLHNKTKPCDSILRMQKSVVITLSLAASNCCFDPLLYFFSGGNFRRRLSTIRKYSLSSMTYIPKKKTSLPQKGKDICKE
Chain of 5-hydroxytryptamine 1D receptor (Q8MI13 whole entry): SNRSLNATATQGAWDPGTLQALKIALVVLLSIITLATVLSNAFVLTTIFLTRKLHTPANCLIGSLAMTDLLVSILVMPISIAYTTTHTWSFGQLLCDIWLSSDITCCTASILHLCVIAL
Chain of Voltage-dependent calcium channel gamma-1 subunit (Q06432 whole entry): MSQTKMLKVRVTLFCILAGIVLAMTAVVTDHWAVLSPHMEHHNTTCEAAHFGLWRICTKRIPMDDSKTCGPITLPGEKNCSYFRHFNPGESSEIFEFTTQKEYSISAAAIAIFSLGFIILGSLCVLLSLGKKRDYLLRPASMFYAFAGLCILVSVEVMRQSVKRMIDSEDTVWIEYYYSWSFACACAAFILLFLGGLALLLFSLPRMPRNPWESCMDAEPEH
Chain of Delta-type opioid receptor (P33533 whole entry): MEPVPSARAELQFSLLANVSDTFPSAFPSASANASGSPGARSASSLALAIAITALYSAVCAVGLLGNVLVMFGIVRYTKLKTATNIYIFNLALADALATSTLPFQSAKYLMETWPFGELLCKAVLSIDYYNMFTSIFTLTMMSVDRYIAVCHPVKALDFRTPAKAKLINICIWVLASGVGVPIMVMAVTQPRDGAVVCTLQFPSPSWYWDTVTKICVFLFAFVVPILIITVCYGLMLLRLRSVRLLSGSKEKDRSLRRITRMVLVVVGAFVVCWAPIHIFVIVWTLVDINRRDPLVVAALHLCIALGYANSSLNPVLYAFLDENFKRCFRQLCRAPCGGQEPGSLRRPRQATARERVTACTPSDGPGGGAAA
Chain of Gastrin/cholecystokinin type B receptor (P30553 whole entry): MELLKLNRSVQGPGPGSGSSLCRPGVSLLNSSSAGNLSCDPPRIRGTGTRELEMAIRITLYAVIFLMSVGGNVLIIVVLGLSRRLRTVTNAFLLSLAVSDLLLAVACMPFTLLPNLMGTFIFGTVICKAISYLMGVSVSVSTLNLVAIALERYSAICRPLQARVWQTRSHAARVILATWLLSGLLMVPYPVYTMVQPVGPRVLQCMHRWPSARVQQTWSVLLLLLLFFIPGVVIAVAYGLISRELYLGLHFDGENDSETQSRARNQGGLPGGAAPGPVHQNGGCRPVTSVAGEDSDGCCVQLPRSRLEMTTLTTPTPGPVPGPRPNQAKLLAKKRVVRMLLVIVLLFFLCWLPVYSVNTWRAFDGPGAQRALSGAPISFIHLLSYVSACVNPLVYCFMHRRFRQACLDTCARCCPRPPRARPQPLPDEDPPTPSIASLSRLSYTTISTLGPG
Chain of Muscarinic acetylcholine receptor M2 (P10980 whole entry): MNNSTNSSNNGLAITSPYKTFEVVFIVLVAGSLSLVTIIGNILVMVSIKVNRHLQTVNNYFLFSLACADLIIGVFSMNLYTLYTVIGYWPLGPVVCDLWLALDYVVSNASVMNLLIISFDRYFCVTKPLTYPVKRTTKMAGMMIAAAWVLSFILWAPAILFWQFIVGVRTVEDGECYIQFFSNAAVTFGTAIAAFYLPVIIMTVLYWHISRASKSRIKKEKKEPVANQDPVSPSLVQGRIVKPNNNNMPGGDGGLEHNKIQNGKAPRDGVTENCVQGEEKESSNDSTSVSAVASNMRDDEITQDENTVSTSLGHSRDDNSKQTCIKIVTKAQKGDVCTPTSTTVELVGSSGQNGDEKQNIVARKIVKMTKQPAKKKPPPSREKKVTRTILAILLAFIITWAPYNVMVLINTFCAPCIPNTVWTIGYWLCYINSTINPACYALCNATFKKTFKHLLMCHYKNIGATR
Chain of Calcium release-activated calcium channel protein 1 (Q96D31 whole entry): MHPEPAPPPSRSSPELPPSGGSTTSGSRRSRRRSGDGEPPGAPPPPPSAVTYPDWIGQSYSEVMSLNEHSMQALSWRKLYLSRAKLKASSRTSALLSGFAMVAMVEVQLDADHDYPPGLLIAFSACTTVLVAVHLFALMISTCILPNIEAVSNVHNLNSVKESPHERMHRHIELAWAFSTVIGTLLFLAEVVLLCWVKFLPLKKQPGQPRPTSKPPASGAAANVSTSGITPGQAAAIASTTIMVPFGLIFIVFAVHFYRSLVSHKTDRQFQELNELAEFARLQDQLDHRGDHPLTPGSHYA
Chain of Muscarinic acetylcholine receptor M1 (P08482 whole entry): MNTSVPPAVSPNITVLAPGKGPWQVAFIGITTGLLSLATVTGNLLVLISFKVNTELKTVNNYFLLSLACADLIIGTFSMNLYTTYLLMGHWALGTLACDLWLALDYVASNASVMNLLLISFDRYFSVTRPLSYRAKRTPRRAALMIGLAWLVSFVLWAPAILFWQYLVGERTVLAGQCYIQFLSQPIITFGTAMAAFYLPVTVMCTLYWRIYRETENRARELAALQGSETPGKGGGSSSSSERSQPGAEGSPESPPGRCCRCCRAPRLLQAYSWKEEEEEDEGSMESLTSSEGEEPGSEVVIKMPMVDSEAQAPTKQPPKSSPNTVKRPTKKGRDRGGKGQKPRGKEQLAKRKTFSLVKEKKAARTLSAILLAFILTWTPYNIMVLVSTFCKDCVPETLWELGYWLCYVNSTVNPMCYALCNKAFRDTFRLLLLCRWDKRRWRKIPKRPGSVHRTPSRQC
Chain of Mu-type opioid receptor (P33535 whole entry): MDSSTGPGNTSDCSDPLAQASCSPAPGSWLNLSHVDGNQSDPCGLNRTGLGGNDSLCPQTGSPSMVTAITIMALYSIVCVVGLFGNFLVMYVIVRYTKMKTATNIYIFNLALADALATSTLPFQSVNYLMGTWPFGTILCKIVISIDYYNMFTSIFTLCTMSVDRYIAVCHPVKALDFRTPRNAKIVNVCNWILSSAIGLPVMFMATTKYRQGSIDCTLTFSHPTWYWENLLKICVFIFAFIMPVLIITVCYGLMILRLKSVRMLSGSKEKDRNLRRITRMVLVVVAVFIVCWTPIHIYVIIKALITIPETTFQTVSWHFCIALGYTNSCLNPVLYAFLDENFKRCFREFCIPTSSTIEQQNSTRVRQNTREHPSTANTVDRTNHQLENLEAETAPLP
Chain of Sigma non-opioid intracellular receptor 1 (Q9R0C9 whole entry): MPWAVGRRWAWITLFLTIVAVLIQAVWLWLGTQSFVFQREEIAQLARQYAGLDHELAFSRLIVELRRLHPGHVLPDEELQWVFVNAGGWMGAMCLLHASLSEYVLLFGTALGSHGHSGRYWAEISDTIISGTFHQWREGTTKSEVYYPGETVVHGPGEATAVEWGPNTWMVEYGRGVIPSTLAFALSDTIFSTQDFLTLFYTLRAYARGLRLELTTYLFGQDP

c1cc2c(c(N3CCNCC3)c1)OCCO2 [1-(2,3-Dihydro-benzo[1,4]dioxin-5-yl)-piperazine]
Ki (D(1A) dopamine receptor): > 10 µM
Ki [1]: > 10 µM
Ki [2]: > 10 µM
Ki [3]: 9.3 µM
Ki [4]: 0.081 µM
Ki [5]: > 10 µM
Ki (Mu-type opioid receptor): > 10 µM
Ki [6]: 0.052 µM
Ki [7]: > 10 µM
Ki [8]: > 10 µM
Ki [9]: > 10 µM
Ki [10]: > 10 µM
Ki [11]: 0.42 µM
Ki [12]: > 10 µM
Ki [13]: > 10 µM
Ki (Protachykinin-1): > 10 µM
Ki [14]: 0.79 µM
Ki (Histamine H1 receptor): 3.9 µM
Ki [15]: 0.39 µM
Ki (D(2) dopamine receptor): 1.1 µM
Ki [16]: 1.3 µM
Ki [17]: > 10 µM
Ki [18]: > 10 µM
Ki [19]: 1.7 µM
Ki [20]: 3.1 µM
Ki [21]: > 10 µM
Ki [22]: > 10 µM
